Results: ChEMBL document CHEMBL5344403, “Discovery and evaluation of phenacrylanilide derivatives as novel potential anti-liver fibrosis agents” (Eur J Med Chem, 2022)
Active and inactive are the calls of the source. The calls are words filed in the database; no cut-off is given here.

Experiments:
LX-2 [1] = assay: Inhibition of TGF-beta1-induced human LX2 activation at 20 uM pretreated with TGF-beta1 for 1 hr followed by compound addition and measured after 72 hrs by CCK-8 assay relative to control; assay type: functional
[2] = Antiproliferative activity against human LX2 cells assessed as cell survival rate at 20 uM incubated for 72 hrs by CCK-8 assay; assay type: toxicity, cell-based; settings: LX-2 cells, read-out: Activity
LX-2 [3] = assay: Antifibrotic activity against TGF-beta1 induced human LX2 cells assessed as reduction of alpha-SMA expression at 20 uM pretreated with TGF-beta1 for 1 hr followed by compound addition and measured after 24 hrs by Western blot analysis; assay type: functional, cell-based
LX-2 [4] = assay: Antifibrotic activity against TGF-beta1 induced human LX2 cells assessed as reduction of fibronectin expression at 20 uM pretreated with TGF-beta1 for 1 hr followed by compound addition and measured after 24 hrs by Western blot analysis; assay type: functional, cell-based
[5] = Antiproliferative activity against human LO2 cells assessed as inhibition of cell growth incubated for 72 hrs by CCK-8 assay; assay type: toxicity, cell-based; settings: LO2 (L02) cells
Mus musculus [6] = assay: Anti-hepatic fibrosis activity in CCL4-induced C57BL/6J mouse hepatic fibrosis model assessed as reduction in liver injury at 15 to 30 mg/kg, po measured for 3 weeks; assay type: functional, organism-based; settings: dose 15-30 mg/kg
Mus musculus [7] = assay: Anti-hepatic fibrosis activity in CCL4-induced C57BL/6J mouse hepatic fibrosis model assessed as reduction in liver weight coefficient at 15 to 30 mg/kg, po measured for 3 weeks; assay type: functional, organism-based; settings: dose 15-30 mg/kg
Mus musculus [8] = assay: Anti-hepatic fibrosis activity in CCL4-induced C57BL/6J mouse hepatic fibrosis model assessed as decrease in serum ALT level at 15 to 30 mg/kg, po measured for 3 weeks; assay type: functional, organism-based; settings: dose 15-30 mg/kg
Mus musculus [9] = assay: Anti-hepatic fibrosis activity in CCL4-induced C57BL/6J mouse hepatic fibrosis model assessed as decrease in serum AST level at 15 to 30 mg/kg, po measured for 3 weeks; assay type: functional, organism-based; settings: dose 15-30 mg/kg
Mus musculus [10] = assay: Anti-hepatic fibrosis activity in CCL4-induced C57BL/6J mouse hepatic fibrosis model assessed as decrease in serum CHO level at 15 to 30 mg/kg, po measured for 3 weeks; assay type: functional, organism-based; settings: dose 15-30 mg/kg
Mus musculus [11] = assay: Anti-hepatic fibrosis activity in CCL4-induced C57BL/6J mouse hepatic fibrosis model assessed as decrease in serum TG level at 15 to 30 mg/kg, po measured for 3 weeks; assay type: functional, organism-based; settings: dose 15-30 mg/kg
Mus musculus [12] = assay: Anti-hepatic fibrosis activity in CCL4-induced C57BL/6J mouse hepatic fibrosis model assessed as improvement in liver structural damage at 15 to 30 mg/kg, po measured for 3 weeks by H and E staining based analysis; assay type: functional, organism-based; settings: dose 15-30 mg/kg
Mus musculus [13] = assay: Anti-hepatic fibrosis activity in CCL4-induced C57BL/6J mouse hepatic fibrosis model assessed as improvement in inflammatory cell infiltration at 15 to 30 mg/kg, po measured for 3 weeks by H and E staining based analysis; assay type: functional, organism-based; settings: dose 15-30 mg/kg
Mus musculus [14] = assay: Anti-hepatic fibrosis activity in CCL4-induced C57BL/6J mouse hepatic fibrosis model assessed as decrease in collagen deposition in liver at 15 to 30 mg/kg, po measured for 3 weeks by Masson's trichome staining based analysis; assay type: functional, organism-based; settings: dose 15-30 mg/kg
Mus musculus [15] = assay: Anti-hepatic fibrosis activity in CCL4-induced C57BL/6J mouse hepatic fibrosis model assessed as decrease in collagen deposition in liver at 15 to 30 mg/kg, po measured for 3 weeks by sirius red staining based analysis; assay type: functional, organism-based; settings: dose 15-30 mg/kg
Mus musculus [16] = assay: Anti-hepatic fibrosis activity in CCL4-induced C57BL/6J mouse hepatic fibrosis model assessed as downregulation of collagen mRNA expression at 30 mg/kg, po measured for 3 weeks by qRT-PCR analysis; assay type: functional, organism-based
Mus musculus [17] = assay: Anti-hepatic fibrosis activity in CCL4-induced C57BL/6J mouse hepatic fibrosis model assessed as downregulation of alpha-SMA mRNA expression at 30 mg/kg, po measured for 3 weeks by qRT-PCR analysis; assay type: functional, organism-based
Mus musculus [18] = assay: Anti-hepatic fibrosis activity in CCL4-induced C57BL/6J mouse hepatic fibrosis model assessed as downregulation of TGF-beta1 mRNA expression at 30 mg/kg, po measured for 3 weeks by qRT-PCR analysis; assay type: functional, organism-based
Mus musculus [19] = assay: Anti-hepatic fibrosis activity in CCL4-induced C57BL/6J mouse hepatic fibrosis model assessed as downregulation of alpha-SMA level at 30 mg/kg, po measured for 3 weeks by Western blot analysis; assay type: functional, organism-based
Mus musculus [20] = assay: Anti-hepatic fibrosis activity in CCL4-induced C57BL/6J mouse hepatic fibrosis model assessed as downregulation of collagen level at 30 mg/kg, po measured for 3 weeks by Western blot analysis; assay type: functional, organism-based
Mus musculus [21] = assay: Anti-hepatic fibrosis activity in CCL4-induced C57BL/6J mouse hepatic fibrosis model assessed as downregulation of collagen level in liver at 30 mg/kg, po measured for 3 weeks by immunohistochemical analysis; assay type: functional, organism-based
Mus musculus [22] = assay: Anti-hepatic fibrosis activity in CCL4-induced C57BL/6J mouse hepatic fibrosis model assessed as downregulation of alpha-SMA level in liver at 30 mg/kg, po measured for 3 weeks by immunohistochemical analysis; assay type: functional, organism-based
Mus musculus [23] = assay: Inhibition of epithelial mesenchymal transition in CCL4-induced C57BL/6J mouse hepatic fibrosis model assessed as […] in N-cadherin protein expression at 15 to 30 mg/kg, po measured for 3 weeks; assay type: functional, organism-based; settings: dose 15-30 mg/kg
Mus musculus [24] = assay: Inhibition of epithelial mesenchymal transition in CCL4-induced C57BL/6J mouse hepatic fibrosis model assessed as decrease in vimentin protein expression at 15 to 30 mg/kg, po measured for 3 weeks; assay type: functional, organism-based; settings: dose 15-30 mg/kg
Mus musculus [25] = assay: Antifibrotic activity against CCL4-induced C57BL/6J mouse hepatic fibrosis model assessed as reduction in F4/80+CD11b+ in macrophage at 15 mg/kg, po measured for 3 weeks by flow cytometry analysis relative to control; assay type: functional; set-up: scale not given: the % may be the effect or the level left
Mus musculus [26] = assay: Antifibrotic activity against CCL4-induced C57BL/6J mouse hepatic fibrosis model assessed as reduction in F4/80+CD11b+ in macrophage at 30 mg/kg, po measured for 3 weeks by flow cytometry analysis relative to control; assay type: functional; set-up: scale not given: the % may be the effect or the level left
Mus musculus [27] = assay: Antifibrotic activity against CCL4-induced C57BL/6J mouse hepatic fibrosis model assessed as reduction in CD69/CD4 in Th1 cell cells at 15 mg/kg, po measured for 3 weeks by flow cytometry analysis relative to control; assay type: functional; set-up: scale not given: the % may be the effect or the level left
Mus musculus [28] = assay: Antifibrotic activity against CCL4-induced C57BL/6J mouse hepatic fibrosis model assessed as reduction in CD69/CD4 in Th1 cell cells at 30 mg/kg, po measured for 3 weeks by flow cytometry analysis relative to control; assay type: functional; set-up: scale not given: the % may be the effect or the level left
Mus musculus [29] = assay: Antifibrotic activity against CCL4-induced C57BL/6J mouse hepatic fibrosis model assessed as reduction in CD69/CD8 in […] cell cells at 15 mg/kg, po measured for 3 weeks by flow cytometry analysis relative to control; assay type: functional; set-up: scale not given: the % may be the effect or the level left
Mus musculus [30] = assay: Antifibrotic activity against CCL4-induced C57BL/6J mouse hepatic fibrosis model assessed as reduction in CD69/CD8 in […] cell cells at 30 mg/kg, po measured for 3 weeks by flow cytometry analysis relative to control; assay type: functional; set-up: scale not given: the % may be the effect or the level left
Mus musculus [31] = assay: Antifibrotic activity against CCL4-induced C57BL/6J mouse hepatic fibrosis model assessed as reduction in CD11b/Gr-1 in MDSC cells at 15 mg/kg, po measured for 3 weeks by flow cytometry analysis relative to control; assay type: functional; set-up: scale not given: the % may be the effect or the level left
Mus musculus [32] = assay: Antifibrotic activity against CCL4-induced C57BL/6J mouse hepatic fibrosis model assessed as reduction in CD11b/Gr-1 in MDSC cells at 30 mg/kg, po measured for 3 weeks by flow cytometry analysis relative to control; assay type: functional; set-up: scale not given: the % may be the effect or the level left
[33] = Toxicity in CCL4-induced C57BL/6J mouse assessed as effect on body weight at 15 to 30 mg/kg, po; assay type: organism-based; settings: in vivo, dose 15-30 mg/kg
[34] = Toxicity in CCL4-induced C57BL/6J mouse assessed as effect on creatinine level at 15 to 30 mg/kg, po; assay type: organism-based; settings: in vivo, dose 15-30 mg/kg
[35] = Toxicity in CCL4-induced C57BL/6J mouse assessed as effect on uric acid level at 15 to 30 mg/kg, po; assay type: organism-based; settings: in vivo, dose 15-30 mg/kg
[36] = Toxicity in CCL4-induced C57BL/6J mouse assessed as effect on urea level at 15 to 30 mg/kg, po; assay type: organism-based; settings: in vivo, dose 15-30 mg/kg
[37] = Toxicity in CCL4-induced po dosed C57BL/6J mouse assessed as decrease in spleen weight coefficient; assay type: organism-based; settings: in vivo, dose 15-30 mg/kg
[38] = Toxicity in CCL4-induced po dosed C57BL/6J mouse assessed as inflammatory cell infiltration in heart at 15 to 30 mg/kg, po by H and E staining based analysis; assay type: organism-based; settings: in vivo, dose 15-30 mg/kg
[39] = Toxicity in CCL4-induced po dosed C57BL/6J mouse assessed as inflammatory cell infiltration in spleen at 15 to 30 mg/kg, po by H and E staining based analysis; assay type: organism-based; settings: in vivo, dose 15-30 mg/kg
[40] = Toxicity in CCL4-induced po dosed C57BL/6J mouse assessed as inflammatory cell infiltration in lung at 15 to 30 mg/kg, po by H and E staining based analysis; assay type: organism-based; settings: in vivo, dose 15-30 mg/kg

Which inhibition at 20 µM (LX-2 [1]) does the source give for `COc1ccc(/C=C/C(=O)Nc2cccc(C(=O)NC3CCCC3)c2)cc1` here?
The inhibition at 20 µM was 30.3%.

What about the viability at 72 h, 20 µM [2] of the same compound?
The viability at 72 h, 20 µM was 77.5%.

And the Activity (LX-2 [3])?
Its Activity is “Active”.

And the Activity (LX-2 [4])?
The Activity was “Active”.

What about the IC50 at 72 h [5] of the same compound?
The IC50 at 72 h was 105 µM.

What about the Activity (Mus musculus [6]) of the same compound?
The Activity was “Active”.

And the Activity (Mus musculus [7])?
Its Activity is “Active”.

And the Activity (Mus musculus [8])?
Its Activity is “Active”.

And the Activity (Mus musculus [9])?
The Activity was “Active”.

And the Activity (Mus musculus [10])?
Its Activity is “Active”.

And the Activity (Mus musculus [11])?
The Activity was “Active”.

And the Activity (Mus musculus [12])?
Its Activity is “Active”.

What about the Activity (Mus musculus [13]) of the same compound?
Its Activity is “Active”.

And the Activity (Mus musculus [14])?
Its Activity is “Active”.

And the Activity (Mus musculus [15])?
Its Activity is “Active”.

And the Activity (Mus musculus [16])?
Its Activity is “Active”.

And the Activity (Mus musculus [17])?
Its Activity is “Active”.

What about the Activity (Mus musculus [18]) of the same compound?
The Activity was “Active”.

What about the Activity (Mus musculus [19]) of the same compound?
The Activity was “Active”.

And the Activity (Mus musculus [20])?
The Activity was “Active”.

What about the Activity (Mus musculus [21]) of the same compound?
The Activity was “Active”.

And the Activity (Mus musculus [22])?
Its Activity is “Active”.

And the inhibition (Mus musculus [23])?
The inhibition was “Active”.

And the Activity (Mus musculus [24])?
Its Activity is “Active”.

What about the Activity (Mus musculus [25]) of the same compound?
Its Activity is 5.11%.

And the Activity (Mus musculus [26])?
The Activity was 4.8%.

And the Activity (Mus musculus [27])?
Its Activity is 1.21%.

What about the Activity (Mus musculus [28]) of the same compound?
The Activity was 1.19%.

And the Activity (Mus musculus [29])?
Its Activity is 1.54%.

And the Activity (Mus musculus [30])?
The Activity was 1.45%.

And the Activity (Mus musculus [31])?
Its Activity is 1.9%.

What about the Activity (Mus musculus [32]) of the same compound?
The Activity was 1.86%.

And the Activity [33]?
Its Activity is “Non-Toxic”.

And the Activity [34]?
The Activity was “Non-Toxic”.

And the Activity [35]?
Its Activity is “Non-Toxic”.

What about the Activity [36] of the same compound?
Its Activity is “Non-Toxic”.

And the Activity [37]?
The Activity was “Dose-Dependent Effect”.

What about the Activity [38] of the same compound?
The Activity was “Non-Toxic”.

And the Activity [39]?
Its Activity is “Non-Toxic”.

And the Activity [40]?
Its Activity is “Non-Toxic”.
